Values after ≈ are worked out from the molar mass of the structure shown.
Columns and labels:
[1] = biological target: Ribosomal protein S6 kinase beta-1 (Homo sapiens, UniProt P23443, T412E); experiment: Inhibition of N-terminal 6His-tagged human recombinant p70S6K T412E mutant (1 to 421 residues) in Sf21 insect cells using FITC-AHA-AKRRRLSSLRA-OH substrate peptide incubated for 90 mins
MCF7 [2] = experiment: Antiproliferative activity against human MCF7 cells assessed as cell survival at 25 ug/ml relative to untreated control; assay type: functional; details: read-out: Survival
[3] = biological target: Epidermal growth factor receptor (Homo sapiens, UniProt P00533); experiment: Inhibition of EGFR (unknown origin)
Homo sapiens = species: Homo sapiens; experiment: Antiproliferative activity against HMVEC incubated for 4 days by MTT assay; assay type: functional
[4] = biological target: T1, Tyrosine-protein kinase JAK3 (Homo sapiens, UniProt P52333); experiment: Inhibition of JAK3 (unknown origin)
T1 sequence (P52333 whole entry): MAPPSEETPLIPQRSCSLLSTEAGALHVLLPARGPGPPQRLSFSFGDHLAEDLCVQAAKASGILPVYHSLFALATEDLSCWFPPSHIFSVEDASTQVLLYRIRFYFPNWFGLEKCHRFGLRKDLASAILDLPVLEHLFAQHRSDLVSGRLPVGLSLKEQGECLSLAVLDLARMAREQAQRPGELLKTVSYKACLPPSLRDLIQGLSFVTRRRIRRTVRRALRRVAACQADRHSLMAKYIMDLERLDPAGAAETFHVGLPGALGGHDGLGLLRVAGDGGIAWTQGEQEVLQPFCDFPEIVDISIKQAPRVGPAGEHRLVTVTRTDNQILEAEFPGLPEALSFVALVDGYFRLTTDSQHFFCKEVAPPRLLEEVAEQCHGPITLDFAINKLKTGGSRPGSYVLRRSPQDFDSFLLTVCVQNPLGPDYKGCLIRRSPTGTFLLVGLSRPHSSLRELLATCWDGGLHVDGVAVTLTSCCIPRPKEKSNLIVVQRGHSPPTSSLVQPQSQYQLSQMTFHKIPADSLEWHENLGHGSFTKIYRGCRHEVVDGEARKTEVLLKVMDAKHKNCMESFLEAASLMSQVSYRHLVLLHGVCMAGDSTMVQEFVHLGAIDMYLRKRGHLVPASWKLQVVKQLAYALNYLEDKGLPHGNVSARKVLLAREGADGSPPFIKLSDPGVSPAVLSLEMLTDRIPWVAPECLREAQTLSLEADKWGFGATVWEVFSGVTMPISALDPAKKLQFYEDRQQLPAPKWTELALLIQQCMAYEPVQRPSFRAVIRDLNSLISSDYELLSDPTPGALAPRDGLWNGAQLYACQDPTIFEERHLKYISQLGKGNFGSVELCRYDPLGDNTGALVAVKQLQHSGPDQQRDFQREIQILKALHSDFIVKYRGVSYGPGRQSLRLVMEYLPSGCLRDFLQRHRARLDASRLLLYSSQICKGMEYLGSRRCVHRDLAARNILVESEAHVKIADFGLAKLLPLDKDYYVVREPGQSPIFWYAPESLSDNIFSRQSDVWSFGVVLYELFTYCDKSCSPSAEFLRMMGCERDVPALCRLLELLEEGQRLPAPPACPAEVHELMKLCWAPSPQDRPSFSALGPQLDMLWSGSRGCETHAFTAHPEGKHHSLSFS

T47D = experiment: Antiproliferative activity against human T47D cells assessed as inhibition of cell proliferation incubated for 48 hrs by cell-titer-Glo reagent based assay; assay type: functional
HT-29 = experiment: Antiproliferative activity against human HT-29 cells assessed as inhibition of cell proliferation incubated for 48 hrs by cell-titer-Glo reagent based assay; assay type: functional; details: HT-29, 48 h
NCI-H1299 = experiment: Antiproliferative activity against human NCI-H1299 cells assessed as inhibition of cell proliferation incubated for 48 hrs by cell-titer-Glo reagent based assay; assay type: functional; details: NCI-H1299, 48 h
MX1 = experiment: Antiproliferative activity against human MX1 cells assessed as inhibition of cell proliferation incubated for 48 hrs by cell-titer-Glo reagent based assay; assay type: functional; details: MX1, 48 h
MDA-MB-435 = experiment: Antiproliferative activity against human MDA-MB-435 cells assessed as inhibition of cell proliferation incubated for 48 hrs by cell-titer-Glo reagent based assay; assay type: functional; details: MDA-MB-435, 48 h
Caspase = experiment: Activation of caspase cascade in human T47D cells using N-(Ac-DEVD)-N'-ethoxycarbonyl-R110 fluorogenic substrate incubated for 48 hrs by fluorescent plate reader based assay; assay type: cell-based
[5] = Acute toxicity in white mongrel mouse administered as single intraperitoneal injection; assay type: organism-based; details: in vivo, ip
[6] = Inhibition of binding of vascular endothelial growth factor to heparin pre-incubated with VEGF prior to application to plates for 45 mins by ELISA
[7] = Inhibition of binding of beta-FGF to heparin pre-incubated with beta-FGF prior to application to plate for 45 mins by ELISA
DU-145 = experiment: Antiproliferative activity against human DU145 cells incubated for 4 days by MTT assay; assay type: functional, cell-based; details: DU-145, 96 h
PC-3 = experiment: Antiproliferative activity against human PC3 cells incubated for 4 days by MTT assay; assay type: functional, cell-based; details: PC-3, 96 h
[8] = system: Lewis lung carcinoma cell line; experiment: Antiproliferative activity against mouse LL/2 cells incubated for 4 days by MTT assay; assay type: functional, cell-based; details: 96 h
B16-F10 = experiment: Antiproliferative activity against mouse B16F10 cells incubated for 4 days by MTT assay; assay type: functional, cell-based; details: B16-F10, 96 h
MCF7 [9] = experiment: Cytotoxic activity against human MCF7 cells; assay type: functional, cell-based

Ribosomal protein S6 kinase beta-1, sequence (P23443 whole entry T412E, the tested form may be a part): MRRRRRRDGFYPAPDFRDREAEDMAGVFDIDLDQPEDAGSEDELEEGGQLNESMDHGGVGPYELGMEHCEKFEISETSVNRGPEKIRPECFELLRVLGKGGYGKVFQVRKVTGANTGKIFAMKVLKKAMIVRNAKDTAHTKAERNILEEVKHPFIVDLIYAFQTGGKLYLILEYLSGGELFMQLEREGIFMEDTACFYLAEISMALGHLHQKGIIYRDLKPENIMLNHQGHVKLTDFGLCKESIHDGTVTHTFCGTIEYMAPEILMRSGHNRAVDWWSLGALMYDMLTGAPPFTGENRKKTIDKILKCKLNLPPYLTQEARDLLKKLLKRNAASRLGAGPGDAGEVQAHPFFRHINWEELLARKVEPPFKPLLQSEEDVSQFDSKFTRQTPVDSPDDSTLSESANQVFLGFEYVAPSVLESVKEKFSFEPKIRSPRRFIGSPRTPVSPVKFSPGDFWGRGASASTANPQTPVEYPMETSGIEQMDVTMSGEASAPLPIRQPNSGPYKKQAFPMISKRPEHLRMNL
Epidermal growth factor receptor, sequence (P00533 whole entry): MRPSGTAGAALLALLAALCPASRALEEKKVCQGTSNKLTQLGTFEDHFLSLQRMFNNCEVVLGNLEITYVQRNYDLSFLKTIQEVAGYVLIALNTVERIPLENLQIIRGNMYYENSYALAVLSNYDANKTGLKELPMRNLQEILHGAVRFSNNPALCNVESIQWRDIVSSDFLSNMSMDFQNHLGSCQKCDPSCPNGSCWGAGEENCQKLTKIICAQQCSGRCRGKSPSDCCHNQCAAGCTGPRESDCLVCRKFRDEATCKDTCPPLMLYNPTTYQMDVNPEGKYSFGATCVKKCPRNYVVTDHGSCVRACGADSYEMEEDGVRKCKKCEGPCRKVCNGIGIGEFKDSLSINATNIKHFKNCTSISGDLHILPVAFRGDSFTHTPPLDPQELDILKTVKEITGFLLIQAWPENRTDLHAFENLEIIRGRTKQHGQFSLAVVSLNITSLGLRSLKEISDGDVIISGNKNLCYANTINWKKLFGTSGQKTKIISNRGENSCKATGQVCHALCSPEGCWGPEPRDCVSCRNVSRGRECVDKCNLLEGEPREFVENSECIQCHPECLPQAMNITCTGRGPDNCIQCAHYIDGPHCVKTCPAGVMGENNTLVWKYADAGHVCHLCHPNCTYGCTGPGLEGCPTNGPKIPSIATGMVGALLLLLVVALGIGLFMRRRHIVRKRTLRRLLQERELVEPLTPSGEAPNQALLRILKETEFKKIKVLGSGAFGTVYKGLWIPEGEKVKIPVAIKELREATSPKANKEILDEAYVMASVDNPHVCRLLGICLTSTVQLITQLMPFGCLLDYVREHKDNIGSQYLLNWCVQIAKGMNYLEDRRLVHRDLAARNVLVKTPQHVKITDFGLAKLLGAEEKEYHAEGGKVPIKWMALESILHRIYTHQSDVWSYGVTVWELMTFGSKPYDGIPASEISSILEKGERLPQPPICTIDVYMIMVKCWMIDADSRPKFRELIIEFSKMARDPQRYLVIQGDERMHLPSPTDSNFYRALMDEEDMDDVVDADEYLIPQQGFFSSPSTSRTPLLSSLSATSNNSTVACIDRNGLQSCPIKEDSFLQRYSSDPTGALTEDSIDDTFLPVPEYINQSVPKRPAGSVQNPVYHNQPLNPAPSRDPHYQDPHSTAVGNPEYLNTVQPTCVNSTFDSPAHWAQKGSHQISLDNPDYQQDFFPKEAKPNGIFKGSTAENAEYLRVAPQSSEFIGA

| Compound | IC50 [1] | GI50 (Homo sapiens) | other results |
| --- | --- | --- | --- |
| NC(=O)c1cccc2c(N[C@H](CN3CCC3)c3ccc(F)c(C(F)(F)F)c3)nnnc12 | < 0.025 µM |  |  |
| Oc1ccc(Nc2nnnc3sc4c(c23)CCC4)cc1 |  |  | viability at 25 µg/mL (MCF7 [2]): 13%; IC50 [3]: 38.7 µM |
| COc1cc2c(Nc3ccc(C)cc3)nnnc2cc1OCCCCl |  | 17.1 µM |  |
| Oc1cccc(Nc2nnnc3sc4c(c23)CCC4)c1 |  |  | viability at 25 µg/mL (MCF7 [2]): 12%; IC50 [3]: 52.1 µM |
| NC(=O)c1c[nH]c2nnnc(O)c12 |  |  | IC50 [4]: < 10 µM |
| COc1ccc(N(C)c2nnnc3ccccc23)cc1 |  |  | IC50 (T47D): 0.007 to 0.05 µM; IC50 (HT-29): 0.007 to 0.05 µM; IC50 (NCI-H1299): 0.007 to 0.05 µM; IC50 (MX1): 0.007 to 0.05 µM; IC50 (MDA-MB-435): 0.007 to 0.05 µM; EC50 (Caspase): 0.016 µM |
| CC1(C)Cc2c(c(N3CCOCC3)nc3sc4c(NNc5ccccc5)nnnc4c23)CO1 |  |  | MTD [5]: 2000 mg/kg |
| NC(=O)c1cccc2c(N[C@H](CN3CCC3)c3ccc(Cl)c(C(F)(F)F)c3)nnnc12 | < 0.025 µM |  |  |
| c1ccc(NNc2nnnc3c2sc2nc(N4CCOCC4)c4c(c23)CCCC4)cc1 |  |  | MTD [5]: 2000 mg/kg |
| COc1cc2c(Nc3ccccc3)nnnc2cc1OCCCCl |  | > 80 µM |  |
| COc1cc2c(Nc3ccc(Cl)c(Cl)c3)nnnc2cc1OCCCCl |  | 11 µM |  |
| COc1cc2c(Nc3ccc(F)cc3)nnnc2cc1OCCCCl |  | 23.1 µM |  |
| CCCCCOc1cc2nnnc(Nc3ccc(Cl)cc3)c2cc1OC |  | 25.4 µM |  |
| COc1cc2c(Nc3ccc(Cl)cc3)nnnc2cc1OCCCCl |  | 18.6 µM |  |
| NC(=O)c1cccc2c(NCc3cccc(F)c3)nnnc12 | 0.501 to 1 µM |  |  |
| CN(C)C[C@@H](Nc1nnnc2c(C(N)=O)cccc12)c1ccc(Cl)c(C(F)(F)F)c1 | < 0.025 µM |  |  |
| NC(=O)c1cccc2c(NCc3cc(C(F)(F)F)ccn3)nnnc12 | > 1 µM |  |  |
| CC1(C)Cc2c(c(N3CCOCC3)nc3sc4c(NN)nnnc4c23)CO1 |  |  | MTD [5]: 2000 mg/kg |
| CC(C)(CC(=O)On1nnc2ccccc2c1=O)CN1C(=O)c2cc3oc(-c4ccc(Cl)cc4)cc3n2C1=S |  |  | IC50 [6]: 0.26 µM; IC50 [7]: 0.16 µM |

| Compound | IC50 [1] | GI50 (Homo sapiens) | other results |
| --- | --- | --- | --- |
| CN(C)C[C@@H](Nc1nnnc2c(C(N)=O)cccc12)c1ccc(Cl)c(C#N)c1 | 0.025 to 0.1 µM |  |  |
| CCOc1cc2nnnc(Nc3ccc(F)c(Cl)c3)c2cc1OC |  | 38.8 µM |  |
| CCCCCOc1cc2nnnc(Nc3ccc(OC(F)(F)F)cc3)c2cc1OC |  | 38 µM |  |
| c1coc(CNc2nnnc3c2sc2nc(N4CCOCC4)c4c(c23)CCCC4)c1 |  |  | MTD [5]: 2000 mg/kg |
| CCCCCCNc1nnnc2c1sc1nc(N3CCOCC3)c3c(c12)CC(C)(C)OC3 |  |  | MTD [5]: 2000 mg/kg |
| NC(=O)c1cccc2c(NCc3cccnc3)nnnc12 | > 1 µM |  |  |
| COc1cc([C@@H](CN2CCC2)Nc2nnnc3c(C(N)=O)cccc23)ccc1Cl | < 0.025 µM |  |  |
| Clc1ccc(Nc2nnnc3ccccc23)cc1 |  | > 80 µM |  |
| COc1cc2c(Nc3ccc(F)c(C(F)(F)F)c3)nnnc2cc1OCCCCl |  | 15.2 µM |  |
| COc1cc2c(Nc3cccc(C(F)(F)F)c3)nnnc2cc1OCCCCl |  | 21.4 µM |  |
| CC(C)CCNc1nnnc2c1sc1nc(N3CCOCC3)c3c(c12)CC(C)(C)OC3 |  |  | MTD [5]: 2000 mg/kg |
| NC(=O)c1cccc2c(NCc3cccc(C(F)(F)F)c3)nnnc12 | 0.101 to 0.5 µM |  |  |
| NC(=O)c1cccc2c(NCc3ccccn3)nnnc12 | > 1 µM |  |  |
| NC(=O)c1cccc2c(N[C@H](CN3CCC3)c3ccc(Cl)c(Cl)c3)nnnc12 | < 0.025 µM |  |  |
| CCOc1cc2nnnc(Nc3ccc(Cl)cc3)c2cc1OC |  | 26.5 µM |  |
| COc1cc2c(Nc3ccc(OC(F)(F)F)cc3)nnnc2cc1OCCCCl |  | 23.2 µM |  |
| C=CCNc1nnnc2c1sc1nc(N3CCOCC3)c3c(c12)CC(C)(C)OC3 |  |  | MTD [5]: 2000 mg/kg |
| COc1cc2c(Nc3ccc(F)c(Cl)c3)nnnc2cc1OCCCCl |  | 7.98 µM | IC50 (DU-145): 3.79 to 6.91 µM; IC50 (PC-3): 3.79 to 6.91 µM; IC50 [8]: 3.79 to 6.91 µM; IC50 (B16-F10): 3.79 to 6.91 µM |
| CC1(C)Cc2c(c(N3CCOCC3)nc3sc4c(Cl)nnnc4c23)CO1 |  |  | MTD [5]: 2000 mg/kg |

| Compound | IC50 [1] | GI50 (Homo sapiens) | other results |
| --- | --- | --- | --- |
| CCOc1cc2nnnc(Nc3ccc(C)cc3)c2cc1OC |  | 42.6 µM |  |
| CC(C)CCNc1nnnc2c1sc1nc(N3CCOCC3)c3c(c12)CCCC3 |  |  | MTD [5]: 2000 mg/kg |
| CCCCCOc1cc2nnnc(Nc3cccc(OC(F)(F)F)c3)c2cc1OC |  | 42.6 µM |  |
| NC(=O)c1cccc2c(NCc3ccc(C(F)(F)F)cc3)nnnc12 | 0.025 to 0.1 µM |  |  |
| COc1cc2c(Nc3cc(Cl)cc(Cl)c3)nnnc2cc1OCCCCl |  | 28.8 µM |  |
| COc1cc([C@@H](CN(C)C)Nc2nnnc3c(C(N)=O)cccc23)ccc1Cl | 0.025 to 0.1 µM |  |  |
| NC(=O)c1cccc2c(NCc3ccc(Cl)c(Cl)c3)nnnc12 | < 0.025 µM |  |  |
| COc1cc2c(Nc3cccc(OC(F)(F)F)c3)nnnc2cc1OCCCCl |  | 24.9 µM |  |
| NC(=O)c1cccc2c(NCc3ccccc3)nnnc12 | 0.501 to 1 µM |  |  |
| O=c1[nH]nnc2c1C1C(=Cc3ccccc31)S2 (stereo not drawn) |  |  | IC50 (MCF7 [9]): 6 µg/mL (≈ 24.9 µM) |
| CC1(C)Cc2c(c(N3CCOCC3)nc3sc4c(N(Cc5ccccc5)Cc5ccccc5)nnnc4c23)CO1 |  |  | MTD [5]: 2000 mg/kg |
| NNc1nnnc2c1sc1nc(N3CCOCC3)c3c(c12)CCCC3 |  |  | MTD [5]: 2000 mg/kg |
| CC1(C)Cc2c(c(N3CCOCC3)nc3sc4c(N5CCNCC5)nnnc4c23)CO1 |  |  | MTD [5]: 2000 mg/kg |
| CN(C)C[C@@H](Nc1nnnc2c(C(N)=O)cccc12)c1ccc(Cl)c(Cl)c1 | < 0.025 µM |  |  |
| NC(=O)c1cccc2c(NCc3ccc(Cl)c(C(F)(F)F)c3)nnnc12 | < 0.025 µM |  |  |
| N#Cc1cc([C@@H](CN2CCC2)Nc2nnnc3c(C(N)=O)cccc23)ccc1Cl | < 0.025 µM |  |  |
| CCN(CC)CCNc1nnnc2c1sc1nc(N3CCOCC3)c3c(c12)CC(C)(C)OC3 |  |  | MTD [5]: 2000 mg/kg |
| Clc1nnnc2c1sc1nc(N3CCOCC3)c3c(c12)CCCC3 |  |  | MTD [5]: 2000 mg/kg |

From ChEMBL document CHEMBL4229324, “Synthesis and antitumor activities of 1,2,3-triazines and their benzo- and heterofused derivatives” (Eur J Med Chem, 2017)
